Experimental data as given in patent publication US20200095296A1, “USE OF PEPTIDES AS BIOMARKERS IN THE DIAGNOSIS, CONFIRMATION AND TREATMENT OF A NEUROLOGICAL DISORDER AND TCR AND/OR HLA IMMUNOPROFILING IN NEURODEGENERATIVE DISEASE” (THE TRUSTEES OF COLUMBIA UNIVERSITY IN THE CITY OF NEW YORK, priority 2017, published 2020).
Where two headings read alike, the source gives them in different places.

How the values were obtained:
[1] = molecular target: T1, DPB1*05:01 (Homo sapiens, UniProt P04440+P20036, A65V/A84E/F191V/F64L/G113D/G114E/K142R/L158P/M116V/M62Q/P115A/Q81R/R125K/T114A/T199I/T259P/V234M); test: competition binding assay, purified HLA DPB1*05:01
T1 sequence (P20036 29-260 M62Q/Q81R/T114A/K142R/L158P/F191V/T259P): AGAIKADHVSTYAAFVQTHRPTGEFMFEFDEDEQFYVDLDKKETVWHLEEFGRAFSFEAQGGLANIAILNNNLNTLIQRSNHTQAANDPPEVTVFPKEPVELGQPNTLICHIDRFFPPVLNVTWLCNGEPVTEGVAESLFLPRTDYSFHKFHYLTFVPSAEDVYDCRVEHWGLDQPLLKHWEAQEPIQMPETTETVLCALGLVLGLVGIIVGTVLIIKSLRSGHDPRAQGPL
T1 sequence (P04440 30-258 F64L/A65V/A84E/G113D/G114E/P115A/M116V/R125K/T199I/V234M): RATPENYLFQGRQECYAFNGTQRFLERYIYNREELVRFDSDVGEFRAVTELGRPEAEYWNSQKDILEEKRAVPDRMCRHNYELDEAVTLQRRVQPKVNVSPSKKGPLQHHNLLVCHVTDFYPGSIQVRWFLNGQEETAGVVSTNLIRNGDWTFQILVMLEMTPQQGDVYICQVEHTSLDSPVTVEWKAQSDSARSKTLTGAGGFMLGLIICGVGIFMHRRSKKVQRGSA

[2] = molecular target: DRB1*03:01 (Homo sapiens, UniProt P01903+P01911, A100K/A102G/A103R/A169T/F55Y/I96L/K41T/L162R/M171V/P40S/Q125H/Q178H/Q39Y/R42S/S66N/T106N/T262R/W38E/Y61H); test: competition binding assay, purified HLA DRB1*03:01
[3] = molecular target: DRB1*04:01 (Homo sapiens, UniProt P01903+P01911, A100K/A169T/F76Y/I96L/K127E/L162R/M171V/N62H/P40V/Q125Y/R42H/S133A/S149N/S66Y/V115G/V209L/W38E); test: competition binding assay, purified HLA DRB1*04:01; settings: radiolabeled peptide competition, nM
[4] = molecular target: DRB3*01:01 (Homo sapiens, UniProt P01903+P79483); test: competition binding assay, purified HLA DRB3*01:01; settings: radiolabeled peptide competition, nM
[5] = molecular target: DRB3*02:02 (Homo sapiens, UniProt P01903+P79483, A212P/D57E/F66Y/L67A/R103Q/R218S/R40L/S89Y/T80R/V86D/Y55F/Y59H); test: competition binding assay, purified HLA DRB3*02:02
[6] = molecular target: DRB5*01:01 (Homo sapiens, UniProt P01903+Q30154); test: competition binding assay, purified HLA DRB5*01:01
[7] = molecular target: DRB1*15:01 (Homo sapiens, UniProt P01903+P01911); test: competition binding assay, purified HLA DRB1*15:01
[8] = purified HLA, radiolabeled peptide competition, nM, read-out: binding to DRB1*03:01 (IC50)
[9] = purified HLA, radiolabeled peptide competition, nM, read-out: binding to DRB3*02:02 (IC50)
[10] = purified HLA, radiolabeled peptide competition, nM, read-out: binding to DRB5*01:01 (IC50)

CSCC[C@H](NC(=O)[C@@H](N)CCC(=O)O)C(=O)N1CCC[C@H]1C(=O)N[C@@H](COP(=O)(O)O)C(=O)N[C@@H](CCC(=O)O)C(=O)N[C@@H](CCC(=O)O)C(=O)NCC(=O)N[C@@H](Cc1ccc(O)cc1)C(=O)N[C@@H](CCC(N)=O)C(=O)N[C@@H](CC(=O)O)C(=O)N[C@@H](Cc1ccc(O)cc1)C(=O)N[C@@H](CCC(=O)O)C(=O)N1CCC[C@H]1C(=O)N[C@@H](CCC(=O)O)C(=O)N[C@@H](C)C(=O)O
IC50 [1]: > 10000 nM
IC50 [2, 8]: > 10000 nM
IC50 [3]: 4950 nM
IC50 [4]: > 10000 nM
IC50 [5, 9]: > 10000 nM
IC50 [6, 10]: > 10000 nM

CSCC[C@H](NC(=O)[C@H](CCC(=O)O)NC(=O)[C@H](Cc1ccc(O)cc1)NC(=O)[C@H](C)NC(=O)[C@H](CCC(=O)O)NC(=O)[C@H](CC(N)=O)NC(=O)[C@@H](N)CC(=O)O)C(=O)N1CCC[C@H]1C(=O)N[C@@H](COP(=O)(O)O)C(=O)N[C@@H](CCC(=O)O)C(=O)N[C@@H](CCC(=O)O)C(=O)NCC(=O)N[C@@H](Cc1ccc(O)cc1)C(=O)N[C@@H](CCC(N)=O)C(=O)N[C@@H](CC(=O)O)C(=O)O
IC50 ([1]; purified HLA, radiolabeled peptide competition, nM, read-out: binding to DPB1*05:01 (IC50)): > 10000 nM
IC50 [2, 8]: > 10000 nM
IC50 [3]: 9130 nM
IC50 ([7]; purified HLA, radiolabeled peptide competition, nM, read-out: binding to DRB1*15:01 (IC50)): > 10000 nM
IC50 [4]: 9180 nM
IC50 [5, 9]: > 10000 nM
IC50 [6, 10]: > 10000 nM

CSCC[C@H](NC(=O)[C@H](CCC(=O)O)NC(=O)[C@H](Cc1ccc(O)cc1)NC(=O)[C@H](C)NC(=O)[C@H](CCC(=O)O)NC(=O)[C@H](CC(N)=O)NC(=O)[C@@H](N)CC(=O)O)C(=O)N1CCC[C@H]1C(=O)N[C@@H](CO)C(=O)N[C@@H](CCC(=O)O)C(=O)N[C@@H](CCC(=O)O)C(=O)NCC(=O)N[C@@H](Cc1ccc(O)cc1)C(=O)N[C@@H](CCC(N)=O)C(=O)N[C@@H](CC(=O)O)C(=O)O
IC50 [1]: > 10000 nM
IC50 [2]: > 10000 nM
IC50 [7]: > 10000 nM
IC50 [5]: > 10000 nM
IC50 [6]: > 10000 nM
